Common to all, as to type: cell-based
Assay [1] relates to Plasmodium falciparum 3D7. The assay is described as follows: Plasmodium falciparum assay. The settings on record: Plasmodium falciparum, 3D7, read-out: Plasmodium falciparum IC50, 3D7(Cq-sen).
The subject of assay [2] is Plasmodium falciparum DD2 (Cq-res). The assay is described as follows: Plasmodium falciparum assay, resistant strain. Conditions: DD2, read-out: Plasmodium falciparum IC50, DD2 (Cq-res).
For assay [3], the system named is Plasmodium falciparum 7G8(Cq-res). The assay is described as follows: Plasmodium falciparum assay, resistant strain. The settings on record: 7G8, read-out: Plasmodium falciparum IC50, 7G8(Cq-res).
Assay [4] concerns Plasmodium falciparum K1(Cq-res). Description: Plasmodium falciparum assay, resistant strain. Conditions: K1, read-out: Plasmodium falciparum IC50, K1(Cq-res).

A word on the IC50: it is the concentration at which inhibition is half-maximal.

Some results are limits rather than exact numbers.

`CCN(CC)CCCC(C)Nc1ccnc2cc(Cl)ccc12` (stereo not shown) [Chloroquine]: the IC50 in assay [1] is 0.13 µM; in assay [2] it was 1 µM; in assay [3], 1.09 µM; in assay [4] it was over 1.56 µM.

(Values after patent US20060052600A1, “Amino-functional chalcones” (priority 2002, published 2006).)
